Source: patent US7037891B2, “Methods of modulating G-protein-coupled receptor kinase-associated signal transduction” (Children's Medical Center Corporation, priority 1997, dated 2006)

Tests used:
[1] = Reduction of weight and appetite of normal mice; format: in vivo; details: for change in body weight as compared to control / food consumption as compared to control: NDP-αMSH 0.9 μg/kg BW; for change in body weight as compared to control: KO24H107 21 mg/kg, or both (FIG. 7A); for food consumption as compared to control: KO24H107 21 mg/kg, or both (FIG. 7B)
Experimental: 18 Sabra male mice, 8 weeks old, were used and were divided into four groups as followed:
The animals were weighed before trial and periodically during the trial.
At the same time, food was weighted before it was introduced into cages and at the end of each tested period. From this point on, the follow-up included both weighing of the mice and of the food for the short period, every couple of hours, until night, and later on for the long period, each 24 hour cycle.
The results of FIG. 7A are shown as the percentage of change in body weight as compared to the initial weight for each mice, and then averaged for each group. The calculation of food consumption (FIG. 7B) was calculated in each group relative to the total weight of all animals (4 or 5 animals) and averaged separately for each group.
The above experiment was conducted again with another compound comprising a GRK-derived peptide KO24H112 (SEQ ID NO:5) 16 animals were used as follows: […]

[2] = Type II diabetes in sand rats: blood-glucose after i.p. injection; format: in vivo, sand rats (psamomys obesus); details: diabetic sand-rats
Text: Sand-rats (psamomys) which are genetically prone to develop Type II diabetes were used in this study. The genetically selected sand-rats, 3 to 6 months old, were fed an energy-rich diet (Weizmann HE) for about 3 to 10 days until they became diabetic, as judged by their elevated blood-glucose level (see R. Kalman et al., “The Efficiency of Sand Rat Metabolism is Responsible for Development of Obesity and Diabetes”, J. of Basic & Clinical Physiology & Pharmacology (1993), vol. 4, no. 1–2, pp 57–68, the pertinent portions of which are incorporated herein by reference).
The diabetic sand-rats were injected i.p. once a week with a compound comprising GRK-derived peptide K024H107 (SEQ ID NO:10) at a dose of 10 mg/kg. The peptide was prepared by diluting a 10 mM solution of the peptide in 100% DMSO with phosphate buffered saline (PBS) containing 0.1% bovine serum albumin (BSA) to a concentration of 400 μM. […] of the 10 mM peptide in DMSO solution was mixed with 160 μl of 1.6M NH4HCO3 and heated for 40 minutes at 100° C. The resultant solution was then diluted to 400 μM in 2 M Hepes buffer (pH 7.0). This peptide stock solution was labeled “tbi”. The vehicle of the solution for injection included 8% DMSO, 0.67M ammonium bicarbonate, and 2M Hepes. Control animals received an i.p. injection of the vehicle only.

[3] = system: C6 glioblastoma cells; test: Intracellular cyclic AMP levels (EIA) after isoproterenol activation; format: cell-based
Text: It is well known that after activation of the various GPCRs there is an activation of the adenolate cyclase by G-proteins. This raises the cyclic-AMP levels in the cell, and these levels are then decreased due to the desensitization of the receptors by GRK. Thus it is expected that inhibition of GAST will eliminate this decrease in the cyclic AMP levels, and will cause a constitutive increase in cAMP levels.
C6 glioblastoma cells, which are known to express the β-adrenagic receptor (the substrate of GRK). have been used.
To the cells the following compounds were added:
The amount of the activity was measured by measuring the increase of intracellular cyclic AMP levels, which were measured using the commercially available kit of Biotrack Cellular Communication Assay cyclic-AMP enzyme—immunoassay (EIA) system.

Substance	change in body weight as compared to control ([1]; normal Sabra male mice)	food consumption as compared to control ([1]; normal Sabra male mice)	weight and food consumption effect compared among the three treated groups ([1]; normal Sabra male mice, compound alone 21 mg/kg vs NDP-αMSH and combination (FIG. 7A, 7B))	animals that became normoglycemic already after the first injection (responders) ([2]; i.p. 10 mg/kg once a week) [animals]	rest of the treated animals (nonresponders): normoglycemia ([2]; i.p. 10 mg/kg once a week)	blood-glucose ([2]; i.p. 10 mg/kg, after a single injection, vs vehicle controls (FIG. 3, 4))	cyclic AMP levels ([3]; 10 μM compound added first, 1 μM isoproterenol an hour later (FIG. 6))	cyclic AMP level ([3]; order reversed: 1 μM isoproterenol first, 10 μM compound one hour later (FIG. 6))	weight change ([1]; normal mice, 23.2 mg/kg and 31.5 mg/kg, vs vehicle (FIG. 8A))	change in food consumption ([1]; normal mice, 23.2 mg/kg and 31.5 mg/kg, vs vehicle (FIG. 8B))
NDP-αMSH [reference compound]	weight decrease	decrease in food consumption	–	–	–	–	–	–	–	–
K024H107: GRK-derived peptide, SEQ ID NO.: 10 (LLRRHS; bARK1)	weight decrease	decrease in food consumption	strongest effect	4	became nornoglycemic after three additional weekly injections	dramatic decrease in blood-glucose to the normal level	rose significantly	hardly changed	–	–
KO24H112: GRK-derived peptide; SEQ ID NO.: 15 in b61, printed SEQ ID NO:5 in b230 (LLRRHSI; bARK1)	–	–	–	–	–	–	–	–	effective in reducing both body weight and consumption	effective in reducing both body weight and consumption
